Results: US20240109881A1, “Heteroaryl Compounds as Ligand Directed Degraders of IRAK4” (Bristol-Myers Squibb Company, priority 2022, published 2024)
pEC50: −log10 of the molar value.

These molecules were tested against T1, IRAK4 (Homo sapiens, UniProt Q9NWZ3) (assay: ALE THP1 HTRF (Advanced Lipoxidation End Product THP1 Homogeneous Time Resolved Fluorescence)). Details: THP1 cells.
T1 construct: endogenous in cells; host or cells: THP-1 cells
T1 sequence (Q9NWZ3 1-460): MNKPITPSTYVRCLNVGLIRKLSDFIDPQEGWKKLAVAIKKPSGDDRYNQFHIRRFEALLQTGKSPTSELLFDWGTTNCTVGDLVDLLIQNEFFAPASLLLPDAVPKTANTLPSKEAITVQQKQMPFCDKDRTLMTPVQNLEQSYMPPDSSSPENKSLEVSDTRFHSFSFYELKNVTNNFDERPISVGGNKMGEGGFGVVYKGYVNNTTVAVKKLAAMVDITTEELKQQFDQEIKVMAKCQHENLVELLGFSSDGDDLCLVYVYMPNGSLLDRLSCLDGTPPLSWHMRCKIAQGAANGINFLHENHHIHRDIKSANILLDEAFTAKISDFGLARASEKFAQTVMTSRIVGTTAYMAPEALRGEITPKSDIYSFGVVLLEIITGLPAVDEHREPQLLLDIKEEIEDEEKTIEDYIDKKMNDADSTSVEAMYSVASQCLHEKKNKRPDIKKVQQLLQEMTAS
Type: cell-based
Procedure: For Homogenous Time Resolved Fluorescence (HTRF) assays, a Cisbio HTRF kit was used, which included: Lysis Buffer #1 4×, Blocking Reagent #3 100×, 20× Antibody 1 (Anti-IRAK4 d2), 20× Antibody 2 (Anti-IRAK4 k), and Detection Buffer.
4× Lysis Buffer was stored at 4° C. For use as 1× Lysis buffer, the 4× solution was diluted with de-ionized water (distilled water, Gibco Cat. #15230279) and 100× Blocking Reagent in a 1:3:0.04 volume ratio.
20× Antibody Solution aliquots were stored in −80° C. and the Detection Buffer was stored in 4° C. For use as a 1× Antibody Solution, the 20× Antibody Solution aliquot was diluted with Detection Buffer in a 1:19 volume ratio.
Cells were lysed at room temperature for 45 min with shaking. A BCA protein assay was performed and normalization was conducted to the desired total protein concentration with 1× lysis buffer. Next, 1× Antibody Solutions were prepared by adding 380 μL Detection Buffer to 20 μL 20× Antibody Solution aliquots and mixing well. 1× Antibody Solutions were combined 1:1 and briefly vortexed. For control wells, 20 μL 1× anti IRAK4-k Antibody Solution was saved. The 384-well plate (ProxiPlate-384 Plus, Perkin Elmer Cat. #6008289) was loaded by adding 4 μL of the mixed Antibody Solution to empty wells using a single channel repeater. Using a multi-channel repeater, 16 μL lysate was added per well, and any bubbles that were formed were popped with 20 μL pipette tips and Kimwipe edges. In column 10, triplicates of each control was prepared. In wells A10, B10, and C10, buffer control was prepared by adding 16 μL Lysis Buffer and 4 μL Detection Buffer. In wells D10, E10, and F10, cryptate control was prepared by adding 16 μL Lysis Buffer, 2 μL Detection Buffer, and 2 μL 1× anti IRAK4-k Antibody Solution. In wells G10, H10, and I10, a negative control was prepared by adding 16 μL Lysis Buffer and 4 μL mixed Antibody Solution. The plate was sealed with a clear seal and covered with an aluminum lid. The plate was spun down at 800 g for 5 min and incubated in the dark at room temperature overnight. The next day, the plate was spun down at 800 g for 5 min. The samples were analyzed by a plate reader (Envision, PerkinElmer) using the Desnor 384 HTRF program.

Row | Compound | ALE THP1 HTRF YMIN [%] | pEC50
1 | N#Cc1cnc2c(cnn2-c2cc(NC3CCCC3)c(-c3cn([C@H]4CC[C@H](NC(=O)C5CCN(c6ccc7c(c6)C(=O)N(C6CCC(=O)NC6=O)C7)CC5)CC4)nn3)cn2)c1 (stereo partly drawn) [P-16, N-((1r,4r)-4-(4-(6-(5-cyano-1H-pyrazolo[3,4-b]pyridin-1-yl)-4-(cyclopentylamino)pyridin-3-yl)-1H-1,2,3-triazol-1-yl)cyclohexyl)-1-(2-(2,6-dioxopiperidin-3-yl)-3-oxoisoindolin-5-yl)piperidine-4-carboxamide] | 26.9 | 7.80
2 | N#Cc1cnc2c(cnn2-c2cc(NC3CCCC3)c(C(=O)N[C@H]3CC[C@H](CN4CCN(c5ccc6c(c5)C(=O)N(C5CCC(=O)NC5=O)C6)CC4)CC3)cn2)c1 (stereo partly drawn) [P-17] | 24.6 | 7.89
3 | N#Cc1cnc2c(cnn2-c2cc(NC3CCCC3)c(C(=O)N[C@H]3CC[C@H](CN4CCN(c5ccc6c(c5)C(=O)N(C5CCC(=O)NC5=O)C6=O)CC4)CC3)cn2)c1 (stereo partly drawn) [P-18] | 36.9 | 7.43
4 | CN(C(=O)C1CCN(c2ccc3c(c2)C(=O)N(C2CCC(=O)NC2=O)C3)CC1)C1CCC(n2cc(-c3cnc(-n4ncc5cc(C#N)cnc54)cc3NC3CCCC3)nn2)CC1 (stereo not drawn) [P-19] | 38.0 | 7.77
5 | N#Cc1cnc2c(cnn2-c2cc(NC3CCCC3)c(C(=O)NC3CCC(C(=O)Nc4ccc(C(=O)Nc5ccc(C6CCC(=O)NC6=O)cc5)cc4)CC3)cn2)c1 (stereo not drawn) [P-20] | 30.9 | 5.79
6 | C[C@@H]1CN(C(=O)C2CCC(NC(=O)c3cnc(-n4ncc5cc(C#N)cnc54)cc3NC3CCCC3)CC2)CCN1c1ccc2c(c1)C(=O)N(C1CCC(=O)NC1=O)C2=O (stereo partly drawn) [P-21] | 40.3 | 7.66
7 | N#Cc1cnc2c(cnn2-c2cc(NC3CC3)c(C(=O)NC3CCC(C(=O)N4CCN(c5ccc6c(c5)C(=O)N(C5CCC(=O)NC5=O)C6)CC4)CC3)cn2)c1 (stereo not drawn) [P-22] | 20.0 | 5.96
8 | N#Cc1cnc2c(cnn2-c2cc(NC3CCCC3)c(C(=O)NC3CCC(CC(=O)N4CCN(c5ccc(C6CCC(=O)NC6=O)cc5)CC4)CC3)cn2)c1 (stereo not drawn) [P-23] | 34.8 | 7.70
9 | N#Cc1cnc2c(cnn2-c2cc(NC3CCCC3)c(C(=O)N[C@H]3CC[C@H](CN4CCN(c5ccc6c(c5)C(=O)N(C5CCC(=O)NC5=O)C6)CC4)CC3)cn2)c1 (stereo partly drawn) [P-24] | 35.3 | 6.49
10 | CC1(Nc2cc(-n3ncc4cc(C#N)cnc43)ncc2C(=O)NC2CCC(C(=O)N3CCN(c4ccc5c(c4)C(=O)N(C4CCC(=O)NC4=O)C5)CC3)CC2)CC1 (stereo not drawn) [P-25] | 20.1 | 7.92
11 | CC(C)(C)Nc1cc(-n2ncc3cc(C#N)cnc32)ncc1C(=O)NC1CCC(C(=O)N2CCN(c3ccc4c(c3)C(=O)N(C3CCC(=O)NC3=O)C4)CC2)CC1 (stereo not drawn) [P-26] | 22.3 | 7.62
12 | CN(C1CCN(c2ccc3c(c2)C(=O)N(C2CCC(=O)NC2=O)C3)CC1)[C@H]1CC[C@H](n2cc(-c3cnc(-n4ncc5cc(C#N)cnc54)cc3NC3CCCC3)nn2)CC1 (stereo partly drawn) [P-27] | 28.4 | 7.40
13 | N#Cc1cnc2c(cnn2-c2cc(NC3CCCC3)c(C(=O)NC3CCC(C(=O)NC4CCN(c5ccc(C6CCC(=O)NC6=O)cc5)CC4)CC3)cn2)c1 (stereo not drawn) [P-28] | 36.6 | 6.84
14 | N#Cc1cnc2c(cnn2-c2cc(NC3CCCC3)c(C(=O)N[C@H]3CC[C@H](CNC4CCN(c5ccc(C6CCC(=O)NC6=O)cc5)CC4)CC3)cn2)c1 (stereo partly drawn) [P-29] | 14.1 | 7.01
15 | N#Cc1cnc2c(cnn2-c2cc(NC3CCCC3)c(C(=O)NC3CCC(O)(CN4CCN(c5ccc6c(c5)C(=O)N(C5CCC(=O)NC5=O)C6=O)CC4)CC3)cn2)c1 (stereo not drawn) [P-30, 6-(5-cyano-1H-pyrazolo[3,4-b]pyridin-1-yl)-4-(cyclopentylamino)-N-((1s,4s)-4-((4-(2-(2,6-dioxopiperidin-3-yl)-1,3-dioxoisoindolin-5-yl)piperazin-1-yl)methyl)-4-hydroxycyclohexyl)nicotinamide] | 44.1 | 5.48
